Experimental data as given in article PMC9136576 (Acta Pharmaceutica Sinica. B, 2021).

Experiments:
Experiment in all cases: H2O2 reduction peroxidase assay
Type in all cases: biochemical
Details in all cases: covalent; […] protein, […] H2O2, […] min preincubation, room temperature
rhPRDX6 = biological target: T1, rhPRDX6 (Homo sapiens, UniProt P30041)
T1 sequence (P30041 2-224): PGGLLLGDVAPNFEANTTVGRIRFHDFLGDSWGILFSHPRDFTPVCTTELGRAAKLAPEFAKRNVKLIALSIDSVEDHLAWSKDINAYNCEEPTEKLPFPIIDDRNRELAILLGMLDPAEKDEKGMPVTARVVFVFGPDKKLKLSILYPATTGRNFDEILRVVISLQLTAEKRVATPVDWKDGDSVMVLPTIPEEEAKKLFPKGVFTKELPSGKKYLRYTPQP

rhPRDX2 = biological target: T2, rhPRDX2 (Homo sapiens, UniProt P32119)
T2 sequence (P32119 2-198): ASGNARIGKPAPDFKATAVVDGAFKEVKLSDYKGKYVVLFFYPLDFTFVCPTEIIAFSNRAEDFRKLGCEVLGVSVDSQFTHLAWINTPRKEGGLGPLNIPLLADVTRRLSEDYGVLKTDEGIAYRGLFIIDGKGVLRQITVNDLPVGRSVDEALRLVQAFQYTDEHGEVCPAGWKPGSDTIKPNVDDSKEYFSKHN

rhPRDX4 = biological target: T3, rhPRDX4 (Homo sapiens, UniProt Q13162)
T3 sequence (Q13162 38-271): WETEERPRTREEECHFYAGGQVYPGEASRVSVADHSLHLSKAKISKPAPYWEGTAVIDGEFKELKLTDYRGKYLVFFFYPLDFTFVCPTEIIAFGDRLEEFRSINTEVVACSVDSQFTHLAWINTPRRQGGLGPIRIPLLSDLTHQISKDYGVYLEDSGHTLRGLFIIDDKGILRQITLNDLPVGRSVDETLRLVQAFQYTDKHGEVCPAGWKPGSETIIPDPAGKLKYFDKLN

## CC1=C(O)C(=O)C=C2C1=CC=C1[C@@]2(C)CC[C@@]2(C)[C@@H]3C[C@](C)(C(=O)O)CC[C@]3(C)CC[C@]12C [celastrol]
rhPRDX6
  % inhibition at 5 μmol/L: celastrol could significantly suppress the peroxidase activity of rhPRDXs for H2O2 reduction
rhPRDX2
  % inhibition at 5 μmol/L: celastrol could significantly suppress the peroxidase activity of rhPRDXs for H2O2 reduction
rhPRDX4
  % inhibition at 5 μmol/L: celastrol could significantly suppress the peroxidase activity of rhPRDXs for H2O2 reduction
